Test results reported in ChEMBL document CHEMBL4152235, “Synthesis, anionophoric activity and apoptosis-inducing bioactivity of benzimidazolyl-based transmembrane anion transporters” (Eur J Med Chem, 2018).
Activity calls are given as the source filed them. The rule behind the calls is not given here.

Experiments:
[1] = Binding affinity to chloride ion assessed as 1:1 compound-Cl- complex formation at 4.1 mM using tetra(n-butyl)ammonium chloride by ESI MS spectrometric method
[2] = Binding affinity to chloride ion at 1.5 x 10^-5M using tetra(n-butyl)ammonium chloride measured after 5 mins by spectrophotometric titration method
[3] = Ionophoric activity across pyranine dye encapsulated pH 7 egg yolk L-alpha-phosphatidylcholine-based liposomal membranes assessed as chloride ion transport by measuring induction of pH discharge after 20 mins in presence of NaCl loaded external vesicles by fluorescence method
[4] = Ionophoric activity across pyranine dye encapsulated pH 7 egg yolk L-alpha-phosphatidylcholine-based liposomal membranes assessed as chloride ion transport by measuring initial rate constant for induction of pH discharge at 0.0625 mol% after 20 mins in presence of NaCl loaded external vesicles by fluorescence method (reference value: 5.03 +/- 1.02 10^-3/min)
[5] = Ionophoric activity across pyranine dye encapsulated pH 7 egg yolk L-alpha-phosphatidylcholine-based liposomal membranes assessed as chloride ion transport by measuring initial rate constant for induction of pH discharge at 0.1250 mol% after 20 mins in presence of NaCl loaded external vesicles by fluorescence method (reference value: 5.03 +/- 1.02 10^-3/min)
[6] = Ionophoric activity across pyranine dye encapsulated pH 7 egg yolk L-alpha-phosphatidylcholine-based liposomal membranes assessed as chloride ion transport by measuring initial rate constant for induction of pH discharge at 0.2500 mol% after 20 mins in presence of NaCl loaded external vesicles by fluorescence method (reference value: 5.03 +/- 1.02 10^-3/min)
[7] = Ionophoric activity across pyranine dye encapsulated pH 7 egg yolk L-alpha-phosphatidylcholine-based liposomal membranes assessed as chloride ion transport by measuring initial rate constant for induction of pH discharge at 0.5 mol% after 20 mins in presence of NaCl loaded external vesicles by fluorescence method (reference value: 5.03 +/- 1.02 10^-3/min)
[8] = Ionophoric activity across pyranine dye encapsulated pH 7 egg yolk L-alpha-phosphatidylcholine-based liposomal membranes assessed as chloride ion transport by measuring initial rate constant for induction of pH discharge at 1.0 mol% after 20 mins in presence of NaCl loaded external vesicles by fluorescence method (reference value: 5.03 +/- 1.02 10^-3/min)
[9] = Ionophoric activity across lucigenin probe encapsulated pH 7 egg yolk L-alpha-phosphatidylcholine-based large unilamellar vesicles loaded with NaNO3 assessed as chloride ion efflux at 0.0625 to 1 mol% after 20 mins in presence of NaCl loaded external vesicles by fluorescence method
[10] = Ionophoric activity across pyranine dye encapsulated pH 7 egg yolk L-alpha-phosphatidylcholine-based liposomal membranes assessed as chloride ion transport by measuring induction of pH discharge after 20 mins in presence of NaCl loaded external vesicles by fluorescence method relative to m-Bimbe
[11] = Ionophoric activity across pyranine dye encapsulated pH 7 egg yolk L-alpha-phosphatidylcholine-based liposomal membranes assessed as chloride ion transport by measuring induction of pH discharge at 0.25 mol% after 20 mins in presence of LiCl loaded external vesicles by fluorescence method
[12] = Ionophoric activity across pyranine dye encapsulated pH 7 egg yolk L-alpha-phosphatidylcholine-based liposomal membranes assessed as chloride ion transport by measuring induction of pH discharge at 0.25 mol% after 20 mins in presence of NaCl loaded external vesicles by fluorescence method
[13] = Ionophoric activity across pyranine dye encapsulated pH 7 egg yolk L-alpha-phosphatidylcholine-based liposomal membranes assessed as chloride ion transport by measuring induction of pH discharge at 0.25 mol% after 20 mins in presence of KCl loaded external vesicles by fluorescence method
[14] = Ionophoric activity across pyranine dye encapsulated pH 7 egg yolk L-alpha-phosphatidylcholine-based liposomal membranes assessed as chloride ion transport by measuring induction of pH discharge at 0.25 mol% after 20 mins in presence of RbCl loaded external vesicles by fluorescence method
[15] = Ionophoric activity across pyranine dye encapsulated pH 7 egg yolk L-alpha-phosphatidylcholine-based liposomal membranes assessed as chloride ion transport by measuring induction of pH discharge at 0.25 mol% after 20 mins in presence of CsCl loaded external vesicles by fluorescence method
[16] = Ionophoric activity across pyranine dye encapsulated pH 7 egg yolk L-alpha-phosphatidylcholine-based liposomal membranes assessed as iodide ion transport by measuring induction of pH discharge at 0.25 mol% after 20 mins in presence of NaI loaded external vesicles by fluorescence method
[17] = Ionophoric activity across pyranine dye encapsulated pH 7 egg yolk L-alpha-phosphatidylcholine-based liposomal membranes assessed as nitrate ion transport by measuring induction of pH discharge at 0.25 mol% after 20 mins in presence of NaNO3 loaded external vesicles by fluorescence method
[18] = Ionophoric activity across pyranine dye encapsulated pH 7 egg yolk L-alpha-phosphatidylcholine-based liposomal membranes assessed as bromide ion transport by measuring induction of pH discharge at 0.25 mol% after 20 mins in presence of NaBr loaded external vesicles by fluorescence method
[19] = Ionophoric activity across lucigenin probe encapsulated pH 7 egg yolk L-alpha-phosphatidylcholine-based large unilamellar vesicles loaded with Na2SO4 assessed as chloride ion efflux at 1 mol% after 20 mins in presence of NaCl loaded external vesicles by fluorescence method
[20] = Ionophoric activity across lucigenin probe encapsulated pH 7 egg yolk L-alpha-phosphatidylcholine-based large unilamellar vesicles loaded with Na2SO4 assessed as chloride ion efflux at 1 mol% after 20 mins in presence of NaCl/Na2SO4 loaded external vesicles by fluorescence method
[21] = Ionophoric activity across pyranine dye encapsulated pH 7 POPC-cholesterol-based liposomal membranes assessed as chloride ion transport by measuring induction of pH discharge at 1 mol% after 20 mins in presence of NaCl loaded external vesicles by fluorescence method
HeLa [22] = assay: Cytotoxicity against human HeLa cells assessed as reduction in cell viability at 50 uM after 48 hrs by MTT assay relative to control; format: functional
A549 [23] = assay: Cytotoxicity against human A549 cells assessed as reduction in cell viability at 50 uM after 48 hrs by MTT assay relative to control; format: functional; conditions: A549, 48 h
MCF7 [24] = assay: Cytotoxicity against human MCF7 cells assessed as reduction in cell viability at 50 uM after 48 hrs by MTT assay relative to control; format: functional; conditions: MCF7, 48 h
HepG2 [25] = assay: Cytotoxicity against human HepG2 cells assessed as reduction in cell viability at 50 uM after 48 hrs by MTT assay relative to control; format: functional; conditions: HepG2, 48 h
[26] = Ionophoric activity across pyranine dye encapsulated pH 7 egg yolk L-alpha-phosphatidylcholine-based liposomal membranes assessed as chloride ion transport by measuring initial rate constant for induction of pH discharge at 4.88 x 10^-4 mol% after 20 mins in presence of NaCl loaded external vesicles by fluorescence method (reference value: 5.03 +/- 1.02 10^-3/min)
[27] = Ionophoric activity across pyranine dye encapsulated pH 7 egg yolk L-alpha-phosphatidylcholine-based liposomal membranes assessed as chloride ion transport by measuring initial rate constant for induction of pH discharge at 9.77 x 10^-4 mol% after 20 mins in presence of NaCl loaded external vesicles by fluorescence method (reference value: 5.03 +/- 1.02 10^-3/min)
[28] = Ionophoric activity across pyranine dye encapsulated pH 7 egg yolk L-alpha-phosphatidylcholine-based liposomal membranes assessed as chloride ion transport by measuring initial rate constant for induction of pH discharge at 1.95 x 10^-3 mol% after 20 mins in presence of NaCl loaded external vesicles by fluorescence method (reference value: 5.03 +/- 1.02 10^-3/min)
[29] = Ionophoric activity across pyranine dye encapsulated pH 7 egg yolk L-alpha-phosphatidylcholine-based liposomal membranes assessed as chloride ion transport by measuring initial rate constant for induction of pH discharge at 3.91 x 10^-3 mol% after 20 mins in presence of NaCl loaded external vesicles by fluorescence method (reference value: 5.03 +/- 1.02 10^-3/min)
[30] = Ionophoric activity across pyranine dye encapsulated pH 7 egg yolk L-alpha-phosphatidylcholine-based liposomal membranes assessed as chloride ion transport by measuring initial rate constant for induction of pH discharge at 7.81 x 10^-3 mol% after 20 mins in presence of NaCl loaded external vesicles by fluorescence method (reference value: 5.03 +/- 1.02 10^-3/min)
[31] = Ionophoric activity across pyranine dye encapsulated pH 7 egg yolk L-alpha-phosphatidylcholine-based liposomal membranes assessed as chloride ion transport by measuring initial rate constant for induction of pH discharge at 1.56 x 10^-2 mol% after 20 mins in presence of NaCl loaded external vesicles by fluorescence method (reference value: 5.03 +/- 1.02 10^-3/min)
[32] = Ionophoric activity across pyranine dye encapsulated pH 7 egg yolk L-alpha-phosphatidylcholine-based liposomal membranes assessed as chloride ion transport by measuring induction of pH discharge at 1.95 x 10^-3 mol% after 20 mins in presence of LiCl loaded external vesicles by fluorescence method
[33] = Ionophoric activity across pyranine dye encapsulated pH 7 egg yolk L-alpha-phosphatidylcholine-based liposomal membranes assessed as chloride ion transport by measuring induction of pH discharge at 1.95 x 10^-3 mol% after 20 mins in presence of NaCl loaded external vesicles by fluorescence method
[34] = Ionophoric activity across pyranine dye encapsulated pH 7 egg yolk L-alpha-phosphatidylcholine-based liposomal membranes assessed as chloride ion transport by measuring induction of pH discharge at 1.95 x 10^-3 mol% after 20 mins in presence of KCl loaded external vesicles by fluorescence method
[35] = Ionophoric activity across pyranine dye encapsulated pH 7 egg yolk L-alpha-phosphatidylcholine-based liposomal membranes assessed as chloride ion transport by measuring induction of pH discharge at 1.95 x 10^-3 mol% after 20 mins in presence of RbCl loaded external vesicles by fluorescence method
[36] = Ionophoric activity across pyranine dye encapsulated pH 7 egg yolk L-alpha-phosphatidylcholine-based liposomal membranes assessed as chloride ion transport by measuring induction of pH discharge at 1.95 x 10^-3 mol% after 20 mins in presence of CsCl loaded external vesicles by fluorescence method
[37] = Ionophoric activity across pyranine dye encapsulated pH 7 egg yolk L-alpha-phosphatidylcholine-based liposomal membranes assessed as iodide ion transport by measuring induction of pH discharge at 1.95 x 10^-3 mol% after 20 mins in presence of NaI loaded external vesicles by fluorescence method
[38] = Ionophoric activity across pyranine dye encapsulated pH 7 egg yolk L-alpha-phosphatidylcholine-based liposomal membranes assessed as nitrate ion transport by measuring induction of pH discharge at 1.95 x 10^-3 mol% after 20 mins in presence of NaNO3 loaded external vesicles by fluorescence method
[39] = Ionophoric activity across pyranine dye encapsulated pH 7 egg yolk L-alpha-phosphatidylcholine-based liposomal membranes assessed as bromide ion transport by measuring induction of pH discharge at 1.95 x 10^-3 mol% after 20 mins in presence of NaBr loaded external vesicles by fluorescence method
[40] = Ionophoric activity across lucigenin probe encapsulated pH 7 egg yolk L-alpha-phosphatidylcholine-based large unilamellar vesicles loaded with Na2SO4 assessed as chloride ion efflux at 1.56 x 10^-2mol% after 20 mins in presence of NaCl loaded external vesicles by fluorescence method
[41] = Ionophoric activity across lucigenin probe encapsulated pH 7 egg yolk L-alpha-phosphatidylcholine-based large unilamellar vesicles loaded with Na2SO4 assessed as chloride ion efflux at 1.56 x 10^-2mol% after 20 mins in presence of NaCl/Na2SO4 loaded external vesicles by fluorescence method
[42] = Ionophoric activity across pyranine dye encapsulated pH 7 POPC-cholesterol-based liposomal membranes assessed as chloride ion transport by measuring induction of pH discharge at 7.81 x 10^-3mol% after 20 mins in presence of NaCl loaded external vesicles by fluorescence method
HeLa [43] = assay: Cytotoxicity against human HeLa cells assessed as reduction in cell viability after 48 hrs by MTT assay; format: functional, cell-based
A549 [44] = assay: Cytotoxicity against human A549 cells assessed as reduction in cell viability after 48 hrs by MTT assay; format: functional, cell-based; conditions: A549, 48 h
MCF7 [45] = assay: Cytotoxicity against human MCF7 cells assessed as reduction in cell viability after 48 hrs by MTT assay; format: functional, cell-based; conditions: MCF7, 48 h
HepG2 [46] = assay: Cytotoxicity against human HepG2 cells assessed as reduction in cell viability after 48 hrs by MTT assay; format: functional, cell-based; conditions: HepG2, 48 h
L02 = assay: Cytotoxicity against human LO2 cells assessed as reduction in cell viability after 48 hrs by MTT assay; format: cell-based; conditions: L02, 48 h

## O=[N+]([O-])c1cc(-c2nc3ccccc3[nH]2)cc(-c2nc3ccccc3[nH]2)c1
[1]
  Activity: Active
[2]
  Ka: 3.94 ×10³ /M
[3]
  Activity: Dose-dependent effect
  EC50: 0.49 mol%
[3]; read-out: EC50
  EC50: 6.5 µM
[4]
  K: 3.38 ×10⁻² /min
[5]
  K: 4.89 ×10⁻² /min
[6]
  K: 6.81 ×10⁻² /min
[7]
  K: 1.28 ×10⁻¹ /min
[8]
  K: 1.61 ×10⁻¹ /min
[9]
  Activity: Active
[10]
  fold change (FC): 13
[11]
  Activity: Active
[12]
  Activity: Active
[13]
  Activity: Active
[14]
  Activity: Active
[15]
  Activity: Active
[16]
  Activity: inactive
[17]
  Activity: inactive
[18]
  Activity: inactive
[19]
  Activity: inactive
[20]
  Activity: inactive
[21]
  Activity: inactive
HeLa [22]
  inhibition at 50 µM: 42.5%
A549 [23]
  inhibition at 50 µM: 45.9%
MCF7 [24]
  inhibition at 50 µM: 48.2%
HepG2 [25]
  inhibition at 50 µM: -2.6%

## O=[N+]([O-])c1cc(-c2nc3ccc([N+](=O)[O-])cc3[nH]2)cc(-c2nc3ccc([N+](=O)[O-])cc3[nH]2)c1
[1]
  Activity: Active
[2]
  Ka: 8.18 ×10³ /M
[3]
  Activity: Dose-dependent effect
  EC50: 2.73 ×10⁻³ mol%
[3]; read-out: EC50
  EC50: 0.036 µM
[26]
  K: 2.43 ×10⁻² /min
[27]
  K: 6.25 ×10⁻² /min
[28]
  K: 8.98 ×10⁻² /min
[29]
  K: 1.35 ×10⁻² /min
[30]
  K: 1.81 ×10⁻¹ /min
[31]
  K: 1.99 ×10⁻¹ /min
[10]
  fold change (FC): 2370
[32]
  Activity: Active
[33]
  Activity: Active
[34]
  Activity: Active
[35]
  Activity: Active
[36]
  Activity: Active
[37]
  Activity: inactive
[38]
  Activity: inactive
[39]
  Activity: inactive
[40]
  Activity: inactive
[41]
  Activity: inactive
[42]
  Activity: inactive
HeLa [22]
  inhibition at 50 µM: 94.1%
A549 [23]
  inhibition at 50 µM: 78.7%
MCF7 [24]
  inhibition at 50 µM: 94.7%
HepG2 [25]
  inhibition at 50 µM: 81.3%
HeLa [43]
  IC50: 1.2 to 1.3 µM
A549 [44]
  IC50: 13.6 µM
MCF7 [45]
  IC50: 1.2 µM
HepG2 [46]
  IC50: 11.1 µM
L02
  IC50: 44.9 µM
